Results published in patent US20130109682A1, “CYCLIC ETHER COMPOUNDS USEFUL AS KINASE INHIBITORS” (NOVARTIS AG, priority 2010, published 2013).

Assays:
PIM1 = PIM1 (Homo sapiens, UniProt P11309); experiment: KinaseGlo Pim1 ATP depletion assay; format: biochemical
Method in brief: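 2.5 nM PIM1 preincubated 15 min with compound and 40 μM BAD peptide in 50 mM HEPES pH 7.5, 5 mM MgCl2, 1 mM DTT, 0.05% BSA, 2.5% DMSO. The reaction was started with 20 μM ATP (final) and run to about 50% ATP depletion. Remaining ATP read by KinaseGlo Plus luminescence to give IC50.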

PIM3 = PIM3 (Homo sapiens, UniProt Q86V86); experiment: KinaseGlo Pim3 ATP depletion assay; format: biochemical
Method in brief: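 Kinase was preincubated 15 min with BAD peptide in HEPES pH 7.5/MgCl2/DTT/BSA before ATP was added. Final concentrations were 40 μM ATP, 100 μM BAD peptide and 2.5% DMSO, with 5 nM enzyme. The reaction ran to ~50% ATP depletion and remaining ATP was read by KinaseGlo Plus luminescence.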

[1] = tested on: KMS11 (human myeloma cell line); experiment: Cell proliferation assay (CellTiter-Glo), KMS11; format: cell-based; settings: Homo sapiens, KMS-11; KMS11-Luc cells
Method in brief: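 KMS11 cells in IMDM with 10% FBS and sodium pyruvate, seeded at 2000 cells/well on assay day. Compound added at 2× to equal volume of cells, incubated 3 days at 37° C. Viability read by CellTiter-Glo luminescence; EC50 derived.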

PIM2 = PIM2 (Homo sapiens, UniProt Q9P1W9); experiment: KinaseGlo Pim2 ATP depletion assay; format: biochemical
Chain of PIM2 (Q9P1W9 whole entry): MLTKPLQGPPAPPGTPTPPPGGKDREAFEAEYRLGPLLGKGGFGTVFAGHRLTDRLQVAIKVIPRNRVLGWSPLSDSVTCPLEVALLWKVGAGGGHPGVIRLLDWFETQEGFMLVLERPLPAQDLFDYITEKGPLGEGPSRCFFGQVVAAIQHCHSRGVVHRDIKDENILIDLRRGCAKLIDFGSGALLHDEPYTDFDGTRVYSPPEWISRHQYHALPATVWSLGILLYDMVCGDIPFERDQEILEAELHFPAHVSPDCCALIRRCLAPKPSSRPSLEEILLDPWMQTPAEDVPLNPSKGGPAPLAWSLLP
Method in brief: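 Luminescent ATP-depletion read-out of PIM2 phosphorylating BAD peptide (RSRHSSYPAGT-OH). Final conditions: 5 nM PIM2, 4 μM ATP, 10 μM peptide, 2.5% DMSO in 50 mM HEPES pH 7.5, 5 mM MgCl2, 1 mM DTT, 0.05% BSA. Enzyme–peptide preincubated 15 min with compound; reaction run to ~50% ATP depletion.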

GSK3β = GSK3β (Homo sapiens, UniProt P49841); experiment: GSK3β ATP depletion assay; format: biochemical; settings: read-out: GSK3b IC50
Chain of GSK3β (P49841 whole entry, species assumed): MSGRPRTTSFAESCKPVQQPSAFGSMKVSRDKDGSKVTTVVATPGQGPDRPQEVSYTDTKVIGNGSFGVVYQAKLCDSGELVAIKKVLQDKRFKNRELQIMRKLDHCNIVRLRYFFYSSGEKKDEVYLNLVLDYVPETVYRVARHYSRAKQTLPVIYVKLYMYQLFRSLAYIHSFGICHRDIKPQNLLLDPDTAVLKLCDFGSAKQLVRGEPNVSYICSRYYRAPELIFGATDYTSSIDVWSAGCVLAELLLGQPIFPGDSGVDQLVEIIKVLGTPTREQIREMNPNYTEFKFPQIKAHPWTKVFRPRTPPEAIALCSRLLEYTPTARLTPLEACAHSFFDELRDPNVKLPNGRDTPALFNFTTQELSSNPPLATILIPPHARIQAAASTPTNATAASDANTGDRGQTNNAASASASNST
Method in brief: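 Human GSK3β (5 nM) preincubated 15 min with 10 μM biotinylated phospho-CREB peptide in pH 7.5 Tris buffer (15 mM MgCl2, 1 mM DTT, 0.1% BSA, 2.5% DMSO). Reaction started with 2 μM ATP and run to about 50% ATP depletion. Remaining ATP measured by KinaseGlo luminescence.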

Chain of PIM1 (P11309 whole entry): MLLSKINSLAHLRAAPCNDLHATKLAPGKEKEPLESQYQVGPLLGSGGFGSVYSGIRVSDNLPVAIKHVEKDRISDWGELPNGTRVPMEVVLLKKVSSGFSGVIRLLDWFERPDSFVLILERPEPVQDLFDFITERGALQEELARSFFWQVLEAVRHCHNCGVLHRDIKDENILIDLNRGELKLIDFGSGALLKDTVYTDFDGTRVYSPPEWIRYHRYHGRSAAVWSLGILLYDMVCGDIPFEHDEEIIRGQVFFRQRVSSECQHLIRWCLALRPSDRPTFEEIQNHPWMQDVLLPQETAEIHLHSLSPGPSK

IC50 (PIM1) | IC50 (PIM3) | EC50 [1] | IC50 (PIM2) | IC50 (GSK3β) | SMILES
1 nM | 5 nM | 8110 nM | 12 nM | 583 nM | N#C[C@H]1O[C@@H](c2ccncc2NC(=O)c2ccc(F)c(-c3c(F)cccc3F)n2)C[C@@H](O)[C@@H]1O [Example 13, N-(4-((2R,4R,5S,6R)-6-cyano-4,5-dihydroxytetrahydro-2H-pyran-2-yl)pyridin-3-yl)-6-(2,6-difluorophenyl)-5-fluoropicolinamide]
1 nM | 3 nM | 2630 nM | 2 nM | 70 nM | Nc1cnc(-c2c(F)cccc2F)nc1C(=O)Nc1cnccc1C1=C[C@@H](O)[C@H](O)[C@@H](CCl)O1 [Example 14, 5-amino-N-(4-((2S,3S,4R)-2-(chloromethyl)-3,4-dihydroxy-3,4-dihydro-2H-pyran-6-yl)pyridin-3-yl)-2-(2,6-difluorophenyl)pyrimidine-4-carboxamide]
1 nM | 2 nM | 184 nM | 8 nM | 1 nM | CC[C@]1(O)[C@H](O)C[C@H](c2ccncc2NC(=O)c2nc(-c3ccccc3)cnc2N)O[C@@H]1C [Example 15, 3-amino-N-(4-((2R,4R,5S,6R)-5-ethyl-4,5-dihydroxy-6-methyltetrahydro-2H-pyran-2-yl)pyridin-3-yl)-6-phenylpyrazine-2-carboxamide]
2 nM | 4 nM | 4160 nM | 3 nM | 66 nM | Nc1cnc(-c2c(F)cccc2F)nc1C(=O)Nc1cnccc1[C@H]1C[C@@H](O)[C@H](O)[C@@H](CCl)O1 [Example 17, 5-amino-N-(4-((2R,4R,5S,6S)-6-(chloromethyl)-4,5-dihydroxytetrahydro-2H-pyran-2-yl)pyridin-3-yl)-2-(2,6-difluorophenyl)pyrimidine-4-carboxamide]
3 nM | 5 nM | 5710 nM | 5 nM | 191 nM | CC[C@H]1O[C@@H](c2ccncc2NC(=O)c2nc(-c3c(F)cccc3F)ncc2N)C[C@@H](O)[C@@H]1O [Example 18, 5-amino-2-(2,6-difluorophenyl)-N-(4-((2R,4R,5S,6R)-6-ethyl-4,5-dihydroxytetrahydro-2H-pyran-2-yl)pyridin-3-yl)pyrimidine-4-carboxamide]
20 nM | 9 nM | > 10000 nM | 160 nM | 870 nM | C=C[C@H]1OC(c2ccncc2NC(=O)c2nc(-c3ccccc3)ncc2N)=C[C@@H](O)[C@@H]1O [Example 22, 5-amino-N-(4-((2R,3S,4R)-3,4-dihydroxy-2-vinyl-3,4-dihydro-2H-pyran-6-yl)pyridin-3-yl)-2-phenylpyrimidine-4-carboxamide]
6 nM | 8 nM | > 10000 nM | 41 nM | 200 nM | C=C[C@H]1OC(c2ccncc2NC(=O)c2ccnc(-c3c(F)cccc3F)n2)=C[C@@H](O)[C@@H]1O [Example 23, 2-(2,6-difluorophenyl)-N-(4-((2R,3S,4R)-3,4-dihydroxy-2-vinyl-3,4-dihydro-2H-pyran-6-yl)pyridin-3-yl)pyrimidine-4-carboxamide]
1 nM | 4 nM | 7370 nM | 7 nM | 177 nM | C=C[C@H]1OC(c2ccncc2NC(=O)c2nc(-c3ccccc3F)c(F)cc2N)=C[C@@H](O)[C@@H]1O [Example 24, 3-amino-N-(4-((2R,3S,4R)-3,4-dihydroxy-2-vinyl-3,4-dihydro-2H-pyran-6-yl)pyridin-3-yl)-5-fluoro-6-(2-fluorophenyl)picolinamide]
1 nM | 2 nM | 1350 nM | 2 nM | 660 nM | C=C[C@H]1OC(c2ccncc2NC(=O)c2nc(-c3c(F)cccc3F)c(F)cc2N)=C[C@@H](O)[C@@H]1O [Example 25, 3-amino-6-(2,6-difluorophenyl)-N-(4-((2R,3S,4R)-3,4-dihydroxy-2-vinyl-3,4-dihydro-2H-pyran-6-yl)pyridin-3-yl)-5-fluoropicolinamide]
4 nM | 2 nM | > 10000 nM | 29 nM | 277 nM | CC[C@]1(O)[C@H](O)C[C@H](c2ccncc2NC(=O)c2nc(-c3ccccc3)ncc2N)O[C@@H]1C [Example 26, 5-amino-N-(4-((2R,4R,5S,6R)-5-ethyl-4,5-dihydroxy-6-methyltetrahydro-2H-pyran-2-yl)pyridin-3-yl)-2-phenylpyrimidine-4-carboxamide]
2 nM | 3 nM | 808 nM | 7 nM | 22 nM | O=C(Nc1cnccc1C1=C[C@@H](O)[C@H](O)[C@@H](CCl)O1)c1ccnc(-c2c(F)cccc2F)n1 [Example 28, N-(4-((2S,3S,4R)-2-(chloromethyl)-3,4-dihydroxy-3,4-dihydro-2H-pyran-6-yl)pyridin-3-yl)-2-(2,6-difluorophenyl)pyrimidine-4-carboxamide]
1 nM | 1 nM | 4670 nM | 1 nM | 41 nM | Nc1cc(F)c(-c2ccccc2F)nc1C(=O)Nc1cnccc1C1=C[C@@H](O)[C@H](O)[C@@H](CCl)O1 [Example 29, 3-amino-N-(4-((2S,3S,4R)-2-(chloromethyl)-3,4-dihydroxy-3,4-dihydro-2H-pyran-6-yl)pyridin-3-yl)-5-fluoro-6-(2-fluorophenyl)picolinamide]
1 nM | 1 nM | 825 nM | 1 nM | 201 nM | Nc1cc(F)c(-c2c(F)cccc2F)nc1C(=O)Nc1cnccc1C1=C[C@@H](O)[C@H](O)[C@@H](CCl)O1 [Example 30, 3-amino-N-(4-((2S,3S,4R)-2-(chloromethyl)-3,4-dihydroxy-3,4-dihydro-2H-pyran-6-yl)pyridin-3-yl)-6-(2,6-difluorophenyl)-5-fluoropicolinamide]
1 nM | 1 nM | 1900 nM | 1 nM | 117 nM | O=C(Nc1cnccc1C1=C[C@@H](O)[C@H](O)[C@@H](CCl)O1)c1ccc(F)c(-c2c(F)cccc2F)n1 [Example 31, N-(4-((2S,3S,4R)-2-(chloromethyl)-3,4-dihydroxy-3,4-dihydro-2H-pyran-6-yl)pyridin-3-yl)-6-(2,6-difluorophenyl)-5-fluoropicolinamide]
1 nM | 2 nM | 4530 nM | 2 nM | 276 nM | C[C@H]1O[C@@H](c2ccncc2NC(=O)c2nc(-c3c(F)cccc3F)c(F)cc2N)C[C@@H](O)[C@]1(C)O [Example 33, 3-amino-6-(2,6-difluorophenyl)-N-(4-((2R,4R,5S,6R)-4,5-dihydroxy-5,6-dimethyltetrahydro-2H-pyran-2-yl)pyridin-3-yl)-5-fluoropicolinamide]
22 nM | 38 nM | 5000 nM | 170 nM | 61 nM | CC[C@H]1O[C@@H](c2ccncc2NC(=O)c2ccnc(-c3c(F)cccc3F)n2)C[C@@H](O)[C@@H]1O [Example 34, 2-(2,6-difluorophenyl)-N-(4-((2R,4R,5S,6R)-6-ethyl-4,5-dihydroxytetrahydro-2H-pyran-2-yl)pyridin-3-yl)pyrimidine-4-carboxamide]
1 nM | 1 nM | 1000 nM | 1 nM | 88 nM | Nc1cc(F)c(-c2c(F)cccc2F)nc1C(=O)Nc1cnccc1[C@H]1C[C@@H](O)[C@H](O)[C@@H](CCl)O1 [Example 35, 3-amino-N-(4-((2R,4R,5S,6S)-6-(chloromethyl)-4,5-dihydroxytetrahydro-2H-pyran-2-yl)pyridin-3-yl)-6-(2,6-difluorophenyl)-5-fluoropicolinamide]
12 nM | 17 nM | > 10000 nM | 65 nM | 14 nM | O=C(Nc1cnccc1[C@H]1C[C@@H](O)[C@H](O)[C@@H](CCl)O1)c1ccnc(-c2c(F)cccc2F)n1 [Example 37, N-(4-((2R,4R,5S,6S)-6-(chloromethyl)-4,5-dihydroxytetrahydro-2H-pyran-2-yl)pyridin-3-yl)-2-(2,6-difluorophenyl)pyrimidine-4-carboxamide]
1 nM | 2 nM | 6900 nM | 3 nM | 15 nM | Nc1cc(F)c(-c2ccccc2F)nc1C(=O)Nc1cnccc1[C@H]1C[C@@H](O)[C@H](O)[C@@H](CCl)O1 [Example 38, 3-amino-N-(4-((2R,4R,5S,6S)-6-(chloromethyl)-4,5-dihydroxytetrahydro-2H-pyran-2-yl)pyridin-3-yl)-5-fluoro-6-(2-fluorophenyl)picolinamide]
